Reference: patent publication US20190133128A1, “Fungicidal pyridazinones” (FMC Corporation, priority 2017, published 2019)

Assays:
Assay type in all cases: in vivo
Phakopsora pachyrhizi = experiment: Test A: preventive spray on soybean seedlings, Asian soybean rust, visual disease rating; details: 250 ppm, 100 = 100% disease control, 0 = no control; for pest or weed control at 250 ppm: Phakopsora pachyrhizi
Zymoseptoria tritici = experiment: Test E: preventive spray on wheat seedlings, wheat leaf blotch, visual disease rating; details: 250 ppm, 100 = 100% disease control, 0 = no control; for pest or weed control at 250 ppm: Zymoseptoria tritici
Description: (§1) General protocol for preparing test solutions for Tests AG: the test compounds were first dissolved in acetone in an amount equal to 3% of the final volume and then suspended at the desired concentration (in ppm) in acetone and purified water (50/50 mix by volume) containing the surfactant PEG400 (polyhydric alcohol esters). The resulting test suspensions were then used in Tests AG. Compounds were sprayed at a concentration of 250 ppm or other indicated rate to the point of run-off on the test plants. The test solution was sprayed to the point of run-off on wheat seedlings. […] A dash (-) indicates no test results.

[1] = system: Puccinia recondita f. sp. tritici; experiment: Test F: preventive spray on wheat seedlings, wheat leaf rust, visual disease rating; details: 250 ppm, 100 = 100% disease control, 0 = no control; for pest or weed control at 250 ppm: Puccinia recondita
Description: as §1, with “seedlings. The following day the seedlings were inoculated with a spore suspension of Puccinia recondita f. sp. tritici;” for “seedlings.”

[2] = system: Erysiphe graminis f. sp. tritici; experiment: Test G: preventive spray on wheat seedlings, wheat powdery mildew, visual disease rating; details: 250 ppm, 100 = 100% disease control, 0 = no control; for pest or weed control at 250 ppm: Blumeria graminis, 192 h
Description: as §1

Phytophthora infestans = experiment: whole plant or invertebrate; details: for Test D disease control rating: 250 ppm, tomato seedlings, 100 = 100% disease control, 0 = no control; for pest or weed control at 250 ppm: Phytophthora infestans, in Solanum lycopersicum, read-out: Test D disease control rating
Botrytis cinerea = experiment: Test C: preventive spray on tomato seedlings, gray mold, visual disease rating; details: 250 ppm, 100 = 100% disease control, 0 = no control; for pest or weed control at 250 ppm: Botrytis cinerea
Description: as §1, with “tomato” for “wheat”

Row | SMILES | Test A disease control rating (Phakopsora pachyrhizi) [%] | Test E disease control rating (Zymoseptoria tritici) [%] | Test F disease control rating [1] [%] | Test G disease control rating [2] [%] | Test D disease control rating (Phytophthora infestans) [%] | Test C disease control rating (Botrytis cinerea) [%] | pest or weed control at 250 ppm (Phakopsora pachyrhizi) [%] | pest or weed control at 250 ppm (Zymoseptoria tritici) [%] | pest or weed control at 250 ppm [1] [%] | pest or weed control at 250 ppm [2] [%] | pest or weed control at 250 ppm (Phytophthora infestans) [%] | pest or weed control at 250 ppm (Botrytis cinerea) [%]
1 | Cn1ncc(Cl)c(C(=O)Nc2ccccc2-c2ccc(F)c(F)c2F)c1=O [Compound 32] | 94 | 0 | 96 | 0 | 0 | 0 |  |  |  |  |  | 
2 | Cn1ncc(Cl)c(C(=O)Nc2ccccc2-c2ccc(Cl)cc2)c1=O [Compound 33] | 48 | 0 | 97 | 0 | 0 | 0 |  |  |  |  |  | 
3 | COc1ccccc1NC(=O)c1c(O)cnn(C)c1=O [Compound 34] | 0 | 0 | 80 | 0 | 0 | 0 |  |  |  |  |  | 
4 | Cn1ncc(O)c(C(=O)Nc2ccccc2Br)c1=O [Compound 35] | 0 | 0 | 98 | 0 | 71 | 0 |  |  |  |  |  | 
5 | Cn1ncc(O)c(C(=O)Nc2ccccc2F)c1=O [Compound 36] | 31 | 0 | 98 | 78 | 94 | 0 |  |  |  |  |  | 
6 | Cn1ncc(O)c(C(=O)Nc2ccc(F)cc2)c1=O [Compound 40] | 56 | 96 | 95 | 92 | 73 | 96 |  |  |  |  |  | 
7 | Cn1ncc(Cl)c(C(=O)Nc2ccc(OC(F)(F)F)cc2)c1=O [Compound 41, 5-Chloro-2,3-dihydro-2-methyl-3-oxo-N-[4-(trifluoromethoxy)phenyl]-4-pyridazinecarboxamide] |  |  |  |  |  |  | 87 | 97 | 89 | 0 | 0 | 0
8 | Cn1ncc(Br)c(C(=O)Nc2ccc(OC(F)(F)F)cc2)c1=O [Compound 42, 5-Bromo-2,3-dihydro-2-methyl-3-oxo-N-[4-(trifluoromethoxy)phenyl]-4-pyridazinecarboxamide] |  |  |  |  |  |  | 79 | 99 | 86 | 0 | 0 | 0
9 | Cn1ncc(Cl)c(C(=O)Nc2ccc(F)cc2)c1=O [Compound 43] | 78 | 4 | 97 | 0 | 68 | 79 |  |  |  |  |  | 
10 | Cn1ncc(O)c(C(=O)Nc2cccc(-c3ccc(Cl)cc3)c2)c1=O [Compound 44] | 0 | 0 | 86 | 0 | 0 | 0 |  |  |  |  |  | 
